Test results: US6465455B1, “Benzamide derivatives for the treatment of diseases mediated by cytokines” (AstraZeneca AB, priority 1998, dated 2002)

Compound | melting point [°C]
CC(=O)Oc1ccc(C(=O)Nc2ccc(Cl)c(NC(=O)c3ccc(C#N)cc3)c2)cc1 [Example 14, N-[5-(4-acetoxybenzamido)-2-chlorophenyl]-4-cyanobenzamide] | 195 to 196
COc1ccc(C(=O)Nc2cc(NC(=O)c3cccc(N4CCOCC4)c3)ccc2Cl)cc1OC [Example 4, N-[2-chloro-5-(3-morpholinobenzamido)phenyl]-3,4-dimethoxybenzamide] | 147.9 to 148.3
